Reference: ChEMBL document CHEMBL2311281, “Novel berberine triazoles: synthesis, antimicrobial evaluation and competitive interactions with metal ions to human serum albumin” (Bioorg Med Chem Lett, 2013)
≈ marks a conversion by molar mass, not a printed value.

Experiments:
Micrococcus luteus = test: Antibacterial activity against Micrococcus luteus ATCC 4698 by two fold serial dilution method; format: functional
Escherichia coli = test: Antibacterial activity against Escherichia coli DH52 by two fold serial dilution method; format: functional
Shigella dysenteriae = test: Antibacterial activity against Shigella dysenteriae by two fold serial dilution method; format: functional
Bacillus subtilis = test: Antibacterial activity against Bacillus subtilis by two fold serial dilution method; format: functional
Proteus vulgaris = test: Antibacterial activity against Proteus vulgaris by two fold serial dilution method; format: functional
Staphylococcus aureus [1] = test: Antibacterial activity against Staphylococcus aureus ATCC 25923 by two fold serial dilution method; format: functional
Staphylococcus aureus [2] = test: Antibacterial activity against methicillin-resistant Staphylococcus aureus N315 by two fold serial dilution method; format: functional
Pseudomonas aeruginosa = test: Antibacterial activity against Pseudomonas aeruginosa by two fold serial dilution method; format: functional
Staphylococcus aureus [3] = test: Potency index, ratio of MIC for berberine to MIC compound against methicillin-resistant Staphylococcus aureus N315 by two fold serial dilution method; format: functional
Staphylococcus aureus [4] = test: Potency index, ratio of MIC for chloromycin to MIC compound against methicillin-resistant Staphylococcus aureus N315 by two fold serial dilution method; format: functional
Albumin [5] = target: T1, Albumin (Homo sapiens, UniProt P02768); test: Ratio of binding affinity to HSA in presence of Ce3+ ions to binding affinity to HSA in absence of metal ions; format: ADME; details: isolated protein
Albumin [6] = target: T1, Albumin; test: Ratio of binding affinity to HSA in presence of Fe3+ ions to binding affinity to HSA in absence of metal ions; format: ADME; details: isolated protein
Albumin [7] = target: T1, Albumin; test: Ratio of binding affinity to HSA in presence of Cu2+ ions to binding affinity to HSA in absence of metal ions; format: ADME; details: isolated protein
Albumin [8] = target: T1, Albumin; test: Ratio of binding affinity to HSA in presence of K+ ions to binding affinity to HSA in absence of metal ions; format: ADME; details: isolated protein
Albumin [9] = target: T1, Albumin; test: Ratio of binding affinity to HSA in presence of Zn2+ ions to binding affinity to HSA in absence of metal ions; format: ADME; details: isolated protein
Albumin [10] = target: T1, Albumin; test: Ratio of binding affinity to HSA in presence of Ca2+ ions to binding affinity to HSA in absence of metal ions; format: ADME; details: isolated protein
Albumin [11] = target: T1, Albumin; test: Ratio of binding affinity to HSA in presence of Pb2+ ions to binding affinity to HSA in absence of metal ions; format: ADME; details: isolated protein
Albumin [12] = target: T1, Albumin; test: Ratio of binding affinity to HSA in presence of La3+ ions to binding affinity to HSA in absence of metal ions; format: ADME; details: isolated protein
Albumin [13] = target: T1, Albumin; test: Ratio of binding affinity to HSA in presence of Mg2+ ions to binding affinity to HSA in absence of metal ions; format: ADME; details: isolated protein
Albumin [14] = target: T1, Albumin; test: Ratio of binding affinity to HSA in presence of Ni2+ ions to binding affinity to HSA in absence of metal ions; format: ADME; details: isolated protein

T1 sequence (P02768 whole entry): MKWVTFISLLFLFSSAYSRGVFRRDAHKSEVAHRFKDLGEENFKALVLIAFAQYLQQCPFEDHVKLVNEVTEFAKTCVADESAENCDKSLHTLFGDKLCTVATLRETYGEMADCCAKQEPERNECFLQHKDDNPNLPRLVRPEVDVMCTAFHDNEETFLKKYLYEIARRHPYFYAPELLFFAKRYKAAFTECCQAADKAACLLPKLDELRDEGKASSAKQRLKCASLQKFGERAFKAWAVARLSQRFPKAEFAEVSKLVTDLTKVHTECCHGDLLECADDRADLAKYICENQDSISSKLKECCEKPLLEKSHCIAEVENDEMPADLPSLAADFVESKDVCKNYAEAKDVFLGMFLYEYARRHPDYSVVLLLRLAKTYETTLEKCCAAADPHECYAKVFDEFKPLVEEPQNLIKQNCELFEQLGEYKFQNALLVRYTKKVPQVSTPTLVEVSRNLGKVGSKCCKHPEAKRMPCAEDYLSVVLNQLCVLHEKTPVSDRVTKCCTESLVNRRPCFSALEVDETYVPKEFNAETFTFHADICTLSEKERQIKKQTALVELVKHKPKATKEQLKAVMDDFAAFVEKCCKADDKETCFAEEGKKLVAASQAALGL

Row | Structure (SMILES) | MIC (Micrococcus luteus) | MIC (Escherichia coli) | MIC (Shigella dysenteriae) | MIC (Bacillus subtilis) | MIC (Proteus vulgaris) | MIC (Staphylococcus aureus [1]) | MIC (Staphylococcus aureus [2]) | MIC (Pseudomonas aeruginosa) | Ratio (Staphylococcus aureus [3]) | Ratio (Staphylococcus aureus [4]) | Ratio (Albumin [5]) | Ratio (Albumin [6]) | Ratio (Albumin [7]) | Ratio (Albumin [8]) | Ratio (Albumin [9]) | Ratio (Albumin [10]) | Ratio (Albumin [11]) | Ratio (Albumin [12]) | Ratio (Albumin [13]) | Ratio (Albumin [14])
1 | Clc1ccc(CN(CCBr)CCn2cncn2)cc1 | 512 µg/mL (≈ 1490 µM) | 128 µg/mL (≈ 372 µM) | 256 µg/mL (≈ 745 µM) | 256 µg/mL (≈ 745 µM) | 512 µg/mL (≈ 1490 µM) | 128 µg/mL (≈ 372 µM) | 256 µg/mL (≈ 745 µM) | 256 µg/mL (≈ 745 µM) |  |  |  |  |  |  |  |  |  |  |  | 
2 | COc1ccc2cc3[n+](cc2c1OCCN(CCn1cncn1)Cc1ccccc1F)CCc1cc2c(cc1-3)OCO2.[Cl-] | 8 µg/mL | 4 µg/mL | 4 µg/mL | 8 µg/mL | 4 µg/mL | 4 µg/mL | 8 µg/mL | 8 µg/mL | 16 | 2 |  |  |  |  |  |  |  |  |  | 
3 | Fc1cccc(CN(CCBr)CCn2cncn2)c1 | 64 µg/mL (≈ 196 µM) | 64 µg/mL (≈ 196 µM) | 64 µg/mL (≈ 196 µM) | 256 µg/mL (≈ 782 µM) | 256 µg/mL (≈ 782 µM) | 64 µg/mL (≈ 196 µM) | 128 µg/mL (≈ 391 µM) | 128 µg/mL (≈ 391 µM) |  |  |  |  |  |  |  |  |  |  |  | 
4 | COc1ccc2cc3[n+](cc2c1OCCN(CCn1cncn1)Cc1ccc(Cl)c(Cl)c1)CCc1cc2c(cc1-3)OCO2.[Cl-] | 16 µg/mL | 8 µg/mL | 16 µg/mL | 8 µg/mL | 8 µg/mL | 8 µg/mL | 16 µg/mL | 16 µg/mL |  |  |  |  |  |  |  |  |  |  |  | 
5 | Clc1cccc(CN(CCBr)CCn2cncn2)c1 | 64 µg/mL (≈ 186 µM) | 128 µg/mL (≈ 372 µM) | 256 µg/mL (≈ 745 µM) | 256 µg/mL (≈ 745 µM) | > 512 µg/mL | 128 µg/mL (≈ 372 µM) | 256 µg/mL (≈ 745 µM) | 256 µg/mL (≈ 745 µM) |  |  |  |  |  |  |  |  |  |  |  | 
6 | Clc1ccc(CN(CCBr)CCn2cncn2)c(Cl)c1 | 32 µg/mL (≈ 84.6 µM) | 32 µg/mL (≈ 84.6 µM) | 128 µg/mL (≈ 339 µM) | 256 µg/mL (≈ 677 µM) | 128 µg/mL (≈ 339 µM) | 64 µg/mL (≈ 169 µM) | 256 µg/mL (≈ 677 µM) | 128 µg/mL (≈ 339 µM) |  |  |  |  |  |  |  |  |  |  |  | 
7 | CCn1cc(C(=O)O)c(=O)c2cc(F)c(N3CCNCC3)cc21 [NORFLOXACIN] | 2 µg/mL (≈ 6.26 µM) | 16 µg/mL (≈ 50.1 µM) | 4 µg/mL (≈ 12.5 µM) | 1 µg/mL (≈ 3.13 µM) | 8 µg/mL (≈ 25.1 µM) | 0.5 µg/mL (≈ 1.57 µM) | 8 µg/mL (≈ 25.1 µM) | 16 µg/mL (≈ 50.1 µM) |  |  |  |  |  |  |  |  |  |  |  | 
8 | O=C(N[C@H](CO)[C@H](O)c1ccc([N+](=O)[O-])cc1)C(Cl)Cl [CHLORAMPHENICOL] | 8 µg/mL (≈ 24.8 µM) | 32 µg/mL (≈ 99 µM) | 32 µg/mL (≈ 99 µM) | 32 µg/mL (≈ 99 µM) | 32 µg/mL (≈ 99 µM) | 16 µg/mL (≈ 49.5 µM) | 16 µg/mL (≈ 49.5 µM) | 32 µg/mL (≈ 99 µM) |  |  |  |  |  |  |  |  |  |  |  | 
9 | Clc1ccccc1CN(CCBr)CCn1cncn1 | 64 µg/mL (≈ 186 µM) | 64 µg/mL (≈ 186 µM) | 256 µg/mL (≈ 745 µM) | 256 µg/mL (≈ 745 µM) | 512 µg/mL (≈ 1490 µM) | 128 µg/mL (≈ 372 µM) | 256 µg/mL (≈ 745 µM) | 128 µg/mL (≈ 372 µM) |  |  |  |  |  |  |  |  |  |  |  | 
10 | Clc1ccc(CN(CCBr)CCn2cncn2)cc1Cl | 32 µg/mL (≈ 84.6 µM) | 32 µg/mL (≈ 84.6 µM) | 128 µg/mL (≈ 339 µM) | 256 µg/mL (≈ 677 µM) | 256 µg/mL (≈ 677 µM) | 64 µg/mL (≈ 169 µM) | 256 µg/mL (≈ 677 µM) | 128 µg/mL (≈ 339 µM) |  |  |  |  |  |  |  |  |  |  |  | 
11 | COc1ccc2cc3[n+](cc2c1OCCN(CCn1cncn1)Cc1ccc(Cl)cc1)CCc1cc2c(cc1-3)OCO2.[Cl-] | 16 µg/mL | 16 µg/mL | 8 µg/mL | 8 µg/mL | 32 µg/mL | 16 µg/mL | 16 µg/mL | 16 µg/mL |  |  |  |  |  |  |  |  |  |  |  | 
12 | COc1ccc2cc3[n+](cc2c1OCCN(CCn1cncn1)Cc1ccccc1Cl)CCc1cc2c(cc1-3)OCO2.[Cl-] | 32 µg/mL | 8 µg/mL | 32 µg/mL | 8 µg/mL | 16 µg/mL | 8 µg/mL | 16 µg/mL | 32 µg/mL |  |  |  |  |  |  |  |  |  |  |  | 
13 | COc1ccc2cc3[n+](cc2c1OCCN(CCn1cncn1)Cc1ccc(F)cc1F)CCc1cc2c(cc1-3)OCO2.[Cl-] | 8 µg/mL | 4 µg/mL | 4 µg/mL | 8 µg/mL | 2 µg/mL | 4 µg/mL | 8 µg/mL | 8 µg/mL | 16 | 2 | 0.998 | 1.116 | 0.972 | 0.943 | 0.871 | 0.956 | 0.963 | 0.883 | 1.064 | 0.839
14 | COc1ccc2cc3[n+](cc2c1OC)CCc1cc2c(cc1-3)OCO2 [BERBERINE] | > 512 µg/mL | > 512 µg/mL | 256 µg/mL | > 512 µg/mL | 128 µg/mL | 512 µg/mL | 128 µg/mL | 256 µg/mL |  |  |  |  |  |  |  |  |  |  |  | 
15 | Fc1ccccc1CN(CCBr)CCn1cncn1 | 64 µg/mL (≈ 196 µM) | 32 µg/mL (≈ 97.8 µM) | 64 µg/mL (≈ 196 µM) | 256 µg/mL (≈ 782 µM) | 256 µg/mL (≈ 782 µM) | 64 µg/mL (≈ 196 µM) | 128 µg/mL (≈ 391 µM) | 128 µg/mL (≈ 391 µM) |  |  |  |  |  |  |  |  |  |  |  | 
16 | COc1ccc2cc3[n+](cc2c1OCCN(CCn1cncn1)Cc1cccc(F)c1)CCc1cc2c(cc1-3)OCO2.[Cl-] | 16 µg/mL | 8 µg/mL | 4 µg/mL | 8 µg/mL | 4 µg/mL | 8 µg/mL | 8 µg/mL | 8 µg/mL | 16 | 2 |  |  |  |  |  |  |  |  |  | 
17 | COc1ccc2cc3[n+](cc2c1OCCN(CCn1cncn1)Cc1cccc(Cl)c1)CCc1cc2c(cc1-3)OCO2.[Cl-] | 32 µg/mL | 8 µg/mL | 32 µg/mL | 16 µg/mL | 32 µg/mL | 8 µg/mL | 32 µg/mL | 32 µg/mL |  |  |  |  |  |  |  |  |  |  |  | 
18 | Fc1ccc(CN(CCBr)CCn2cncn2)c(F)c1 | 32 µg/mL (≈ 92.7 µM) | 32 µg/mL (≈ 92.7 µM) | 64 µg/mL (≈ 185 µM) | 256 µg/mL (≈ 742 µM) | 128 µg/mL (≈ 371 µM) | 64 µg/mL (≈ 185 µM) | 128 µg/mL (≈ 371 µM) | 128 µg/mL (≈ 371 µM) |  |  |  |  |  |  |  |  |  |  |  | 
19 | COc1ccc2cc3[n+](cc2c1OCCN(CCn1cncn1)Cc1ccc(Cl)cc1Cl)CCc1cc2c(cc1-3)OCO2.[Cl-] | 16 µg/mL | 4 µg/mL | 8 µg/mL | 8 µg/mL | 8 µg/mL | 8 µg/mL | 8 µg/mL | 16 µg/mL | 16 | 2 |  |  |  |  |  |  |  |  |  | 
